Source: US5070210A, “Novel ketenimines as intermediates for insecticides” (ICI Americas Inc., priority 1990, dated 1991)

Columns and labels:
Type in all cases: in vivo
[1] = tested on: Tobacco Budworm [Heliothis virescens (Fabricius)] eggs; assay: Tobacco budworm egg test; settings: 2-day old eggs, percent in solution
Method: (§1) The compounds in Tables 1 and 2 above were tested for insecticidal activity using the following testing procedures. LC50 values, based on the results of these tests and calculated according to dosage-mortality curves, are expressed in Table 3.
Tobacco Budworm [Heliothis virescens (Fabricius)]:
(b). Eggs: Paper towel patches of 2-day old eggs of the tobacco budworm were dipped in acetone solutions of the test compound and placed in petri dishes containing a portion of larval rearing medium. Treated eggs were maintained at 78° F. and mortality was recorded after all control eggs had hatched and the young larvae were feeding on the media. Test concentrations ranged from 0.1% downward. The LC-50 value is expressed below in Table 3 under the heading "TBW-E" in terms of percent of the test compound in the solution.

[2] = tested on: Housefly [Musca domestica]; assay: Housefly insecticidal test; settings: μg per 25 female flies; mortality after 48 hours
Method: as §1
Housefly [Musca domestica]:
Test compounds were diluted in acetone and aliquots pipetted onto the bottom of aluminum dishes. To ensure even spreading of the chemical on the bottom of the dishes, 1 ml of acetone containing 0.01% peanut oil was also added to each dish. After all solvents had evaporated, the dishes were placed in circular cardboard cages containing 25 female houseflies, 1-2 days old. The cages were covered on the bottom with cellophane and on the top with tulle netting, and each contained a sugar-water saturated cotton plug for maintenance of the flies. Mortality was recorded after 48 hours. Test levels ranged from 100 μg/25 female houseflies downward. The LC-50 value is expressed below in Table 3 under the heading "HF", in terms of μg of the test compound per 25 female flies.

[3] = tested on: Cabbage Looper [Trichoplusia ni (Hubner)]; assay: Cabbage looper insecticidal test; settings: second-instar larvae, percent in solution; 3-5 days
Method: as §1
Cabbage Looper [Trichoplusia ni (Hubner)]:
Test compounds were diluted in a 50-50 acetone-water solution. Cotyledons of hyzini squash (Calabacita abobrinha), approximately 1×1.5 inches, were immersed in the test solutions for 2-3 seconds and placed on a wire screen to dry. The dried leaves were placed in petri dishes containing a moistened piece of filter paper and infested with 5 second-instar cabbage looper larvae. The dishes were placed in a high humidity chamber. Mortality of the larvae was recorded 3-5 days later. Test concentrations ranged from 0.1% downward. The LC-50 value is expressed below in Table 3 under the heading "CL" in terms of percent of the test compound in solution.

Structure (SMILES)	LC50, TBW, E (TBW-E) [1] [%]	LC50, HF [2] [µg]	LC50, CL [3] [%]
COc1ccc(Oc2cccc(COC(=Nc3ccc(F)cc3)C(C)C)c2)cc1 [Compound 220]	> 0.1	85	0.007
COc1ccc(Oc2cccc(COC(=Nc3ccc(F)c(Cl)c3)C(C)C)c2)cc1 [Compound 221]	> 0.1	62	0.0027
CC(C)C(=Nc1ccc(C#N)c(F)c1)OCc1cccc(Oc2ccc(F)cc2)c1 [Compound 222]	> 0.1	32	0.0015
COc1ccc(Oc2cccc(COC(=Nc3ccc(Cl)c(Cl)c3)C(C)C)c2)cc1 [Compound 223]	> 0.1	43	0.008
CC(C)(Cl)C(=Nc1ccc(F)c(Cl)c1)OCc1cccc(Oc2ccc(F)cc2)c1 [Compound 224]	> 0.1	> 100	0.001
CC(C)C(=Nc1ccc(C#N)cc1)OCc1cccc(Oc2ccc(F)cc2)c1 [Compound 227]	0.1	10	0.0015
CC(C)C(=Nc1cccc(Br)c1)OCc1cccc(Oc2ccc(F)cc2)c1 [Compound 229]	> 0.1	20	0.0005
Cc1ccc(Oc2cccc(COC(=Nc3ccc(F)cc3)C(C)C)c2)cc1 [Compound 231]	> 0.1	> 100	0.003
CC(C)C(=Nc1c(F)c(F)c(F)c(F)c1F)OCc1cccc(Oc2ccc(F)cc2F)c1 [Compound 232]	> 0.1	> 100	0.004
CC(C)C(=Nc1ccc(C(C)(C)C)cc1)OCc1cccc(Oc2ccc(F)cc2)c1 [Compound 235]	> 0.1	> 100	0.004
Cc1cc(N=C(OCc2cccc(Oc3ccc(F)cc3)c2)C(C)C)ccc1F [Compound 236]	0.06	7	0.0018
CC(C)C(=Nc1ccc(Cl)cc1)OCc1cccc(Oc2ccc(Br)cc2)c1 [Compound 237]	0.075	50	0.0006
CC(C)C(=Nc1ccc2c(c1)OC(C)(C)O2)OCc1cccc(Oc2ccc(Cl)cc2)c1 [Compound 241]	> 0.1	> 100	0.0004
CC(C)C(=Nc1ccc2c(c1)CCO2)OCc1cccc(Oc2ccccc2)c1 [Compound 243]	> 0.1	9	0.005
CC(C)C(=Nc1ccc2c(c1)OCO2)OCc1cccc(Oc2ccc(C(F)(F)F)cc2)c1 [Compound 246]	> 0.1	60	0.004
CC(C)C(=Nc1ccc(F)c(Cl)c1)OCc1cccc(Oc2ccc(C(F)(F)F)cc2)c1 [Compound 247]	> 0.1	> 100	0.009
COc1cc(N=C(OCc2cccc(Oc3ccccc3)c2)C(C)C)cc(OC)c1OC [Compound 248]	> 0.1	40	0.02
Cc1cccc(N=C(OCc2cccc(Oc3ccccc3)c2)C(C)C)c1C [Compound 249]	0.035	36	0.0025
Cc1ccc(C)c(N=C(OCc2cccc(Oc3ccccc3)c2)C(C)C)c1 [Compound 250]	0.038	38	0.004
CC(C)C(=Nc1ccc(Br)c(Br)c1)OCc1cccc(Oc2ccc(F)cc2)c1 [Compound 251]	0.06	25	0.0005
CC(C)C(=Nc1ccc(Br)c(Br)c1)OCc1cccc(Oc2ccccc2)c1 [Compound 252]	0.04	34	0.0035
CC(C)C(=Nc1cccc(Cl)c1)OCc1cccc(Oc2ccc(Br)cc2)c1 [Compound 260]	> 0.1	22	0.00075

Structure (SMILES)	LC50, TBW, E (TBW-E) [1] [%]	LC50, HF [2] [µg]	LC50, CL [3] [%]
CCC(C)C(=Nc1ccc(F)c(Cl)c1)OCc1ccc(F)c(Oc2ccccc2)c1 (stereo not drawn) [Compound 261]	0.05	24	0.001
Cc1ccc(Cl)cc1N=C(OCc1cccc(Oc2ccccc2)c1)C(C)C [Compound 263]	> 0.1	> 100	0.05
COc1ccc(Cl)cc1N=C(OCc1cccc(Oc2ccccc2)c1)C(C)C [Compound 264]	> 0.1	> 100	0.03
CC(C)C(=Nc1ccc(F)cc1)OCc1cccc(Oc2ccc(F)c(F)c2)c1 [Compound 265]	0.07	10	0.00025
CC(C)C(=Nc1cccc(SC(F)(F)F)c1)OCc1cccc(Oc2ccc(F)cc2)c1 [Compound 272]	> 0.1	> 100	0.0024
CC(C)C(=Nc1ccc2c(c1)OCO2)OCc1cc(Oc2ccc(F)cc2)ccc1Cl [Compound 274]	> 0.1	> 100	0.1
CC(C)C(=Nc1ccc(F)c(F)c1)OCc1cccc(Oc2ccc(Br)cc2)c1 [Compound 275]	0.045	21	0.00012
CC(C)C(=Nc1ccc(F)c(Br)c1)OCc1cccc(Oc2ccc(Br)cc2)c1 [Compound 276]	0.1	39	0.002
CC(C)C(=Nc1ccc(C2CCCCC2)cc1)OCc1cccc(Oc2ccc(F)cc2)c1 [Compound 280]	> 0.1	> 100	0.024
CC(C)C(=Nc1ccc(C(F)(F)F)cc1)OCc1ccc(F)c(Oc2ccc(F)cc2)c1 [Compound 287]	> 0.1	> 100	0.0025
CC(C)C(=Nc1cccc(OC(F)(F)C(F)F)c1)OCc1cccc(Oc2ccc(F)cc2)c1 [Compound 288]	> 0.1	> 100	0.0015
CCC(CC)C(=Nc1ccc(Cl)cc1)OCc1cccc(Oc2ccc(F)cc2)c1 [Compound 290]	> 0.1	> 100	0.017
CCC(CC)C(=Nc1cccc(C(F)(F)F)c1)OCc1cccc(Oc2ccc(F)cc2)c1 [Compound 291]	> 0.1	> 100	0.004
CC(Br)C(=Nc1ccc(F)c(Cl)c1)OCc1cccc(Oc2ccc(F)cc2)c1 (stereo not drawn) [Compound 305]	> 0.1	> 100	0.048
CC(C)C(=Nc1ccc(C(C)(C)C)c(Cl)c1)OCc1cccc(Oc2ccc(F)cc2)c1 [Compound 308]	> 0.1	> 100	0.009
CC(C)(F)C(=Nc1ccc(F)c(Cl)c1)OCc1cccc(Oc2ccc(F)cc2)c1 [Compound 309]	0.07	> 100	0.00017
CC(C)C(=Nc1ccc(Cl)cc1Cl)OCc1cccc(Oc2ccccc2)c1 [Compound 311]	0.1	22	0.0017
CC(C)C(=Nc1ccc(Cl)cc1Cl)OCc1cccc(Oc2ccc(F)cc2)c1 [Compound 312]	> 0.1	> 100	0.006
CC(C)C(=Nc1ccc2c(c1)OCO2)OCc1ccc(F)c(Oc2ccc(Cl)cc2)c1 [Compound 313]	0.013	> 100	0.00025
CCC(C)C(=Nc1ccc(C(C)C)cc1)OCc1cccc(Oc2ccccc2)c1 (stereo not drawn) [Compound 317]	0.03	> 100	0.0045
CC(C)(F)C(=Nc1ccc(F)c(F)c1)OCc1cccc(Oc2ccc(F)cc2)c1 [Compound 318]	> 0.1	19	0.0007
CC(C)(F)C(=Nc1cccc(C(F)(F)F)c1)OCc1cccc(Oc2ccc(F)cc2)c1 [Compound 319]	> 0.1	44	0.0007
